Reference: PMC9917560, “Design, Synthesis and Antimicrobial Evaluation of New N-(1-Hydroxy-1,3-dihydrobenzo[c][1,2]oxaborol-6-yl)(hetero)aryl-2-carboxamides as Potential Inhibitors of Mycobacterial Leucyl-tRNA Synthetase” (International Journal of Molecular Sciences, 2023)
≈ marks a conversion by molar mass, not a printed value. Like-named read-outs stand apart in the source and are kept apart here.

How the values were obtained:
[1] = system: Mycobacterium tuberculosis H37Ra ITM-M006710 (ATCC 9431); test: Antimycobacterial microdilution (resazurin) vs Mtb H37Ra; type: cell-based; conditions: Middlebrook 7H9, resazurin, recalculated from µg/mL, read-out: MIC Mtb H37Ra
[2] = system: Mycobacterium tuberculosis H37Rv CNCTC My 331/88 (ATCC 27294); test: Microplate Alamar Blue assay vs Mtb H37Rv; type: cell-based; conditions: Mycobacterium tuberculosis, pH 6.6, MABA, Middlebrook 7H9 pH 6.6, recalculated from µg/mL; read-out: MIC Mtb H37Rv
[3] = system: Mycobacterium kansasii DSM 44,162 (ATCC 12478); test: Antimycobacterial microdilution (resazurin) vs M. kansasii; type: cell-based; conditions: Middlebrook 7H9, resazurin, read-out: MIC M. kansasii
[4] = system: Mycobacterium avium DSM 44,156 (ATCC 25291); test: Antimycobacterial microdilution (resazurin) vs M. avium; type: cell-based; conditions: Mycobacterium avium, Middlebrook 7H9, resazurin; read-out: MIC M. avium
[5] = system: Mycolicibacterium aurum DSM 43,999 (ATCC 23366); test: Antimycobacterial microdilution (resazurin) vs M. aurum; type: cell-based; conditions: read-out: MIC M. aurum
[6] = system: Mycolicibacterium smegmatis DSM 43,465 (ATCC 607); test: Antimycobacterial microdilution (resazurin) vs M. smegmatis; type: cell-based; conditions: Middlebrook 7H9, resazurin, read-out: MIC M. smeg.
[7] = system: Staphylococcus aureus subsp. aureus CCM 4223 (ATCC 29213); test: Antibacterial microdilution broth (EUCAST); type: cell-based; conditions: read-out: MIC Staphylococcus aureus subsp. aureus
[8] = system: methicillin-resistant Staphylococcus aureus subsp. aureus (MRSA) CCM 4750 (ATCC 43300); test: microbe, parasite or virus in culture; type: cell-based; conditions: read-out: MIC Methicillin-resistant Staphylococcus aureus subsp. aureus
[9] = system: Staphylococcus epidermidis CCM 4418 (ATCC 12228); test: Antibacterial microdilution broth (EUCAST); type: cell-based; conditions: read-out: MIC Staphylococcus epidermidis
[10] = system: Enterococcus faecalis CCM 4224 (ATCC 29212); test: Antibacterial microdilution broth (EUCAST); type: cell-based; conditions: read-out: MIC Enterococcus faecalis
[11] = system: Escherichia coli CCM 3954 (ATCC 25922); test: Antibacterial microdilution broth (EUCAST); type: cell-based; conditions: for MIC: Escherichia coli, read-out: MIC Escherichia coli
[12] = system: Klebsiella pneumoniae CCM 4415 (ATCC 10031); test: Antibacterial microdilution broth (EUCAST); type: cell-based; conditions: for MIC: Klebsiella pneumoniae, read-out: MIC Klebsiella pneumoniae
[13] = system: Acinetobacter baumannii DSM 30007 (ATCC 19606); test: Antibacterial microdilution broth (EUCAST); type: cell-based; conditions: read-out: MIC Acinetobacter baumannii
[14] = system: Pseudomonas aeruginosa CCM 3955 (ATCC 27853); test: Antibacterial microdilution broth (EUCAST); type: cell-based; conditions: read-out: MIC Pseudomonas aeruginosa
[15] = system: Candida albicans CCM 8320 (ATCC 24433); test: Antifungal microdilution broth (EUCAST); type: cell-based; conditions: Candida albicans, read-out: MIC Candida albicans
[16] = system: Candida krusei CCM 8271 (ATCC 6258); test: Antifungal microdilution broth (EUCAST); type: cell-based; conditions: Pichia kudriavzevii, read-out: MIC Candida krusei
[17] = system: Candida parapsilosis CCM 8260 (ATCC 22019); test: Antifungal microdilution broth (EUCAST); type: cell-based; conditions: Lodderomyces parapsilosis, read-out: MIC Candida parapsilosis
[18] = system: Candida tropicalis CCM 8264 (ATCC 750); test: Antifungal microdilution broth (EUCAST); type: cell-based; conditions: read-out: MIC Candida tropicalis
[19] = system: Aspergillus fumigatus ATCC 204305; test: Antifungal microdilution broth (EUCAST); type: cell-based; conditions: Aspergillus fumigatus, ATCC204305, read-out: MIC Aspergillus fumigatus
[20] = system: Aspergillus flavus CCM 8363; test: Antifungal microdilution broth (EUCAST); type: cell-based; conditions: Aspergillus flavus, CCM8363, read-out: MIC Aspergillus flavus
[21] = system: Lichtheimia corymbifera CCM 8077; test: Antifungal microdilution broth (EUCAST); type: cell-based; conditions: Lichtheimia corymbifera, CCM8077, read-out: MIC Lichtheimia corymbifera
[22] = system: Trichophyton interdigitale CCM 8377 (ATCC 9533); test: Antifungal microdilution broth (EUCAST); type: cell-based; conditions: Trichophyton interdigitale, read-out: MIC Trichophyton interdigitale
HepG2 cell line = test: Cytotoxicity screening, CellTiter 96 assay; conditions: Homo sapiens, HepG2, 24 h, read-out: IC50 HepG2

SMILES: O=C(Nc1ccc2c(c1)B(O)OC2)c1ccc(Cl)cc1 [Compound 14, 4-chloro-N-(1-hydroxy-1,3-dihydrobenzo[c][1,2]oxaborol-6-yl)benzamide]
- MIC [1]: 435 µM (≈ 125 µg/mL)
- MIC [2]: 43.5 µM (≈ 12.5 µg/mL)
- MIC [3]: 217 µM (≈ 62.5 µg/mL)
- MIC [4]: 435 µM (≈ 125 µg/mL)
- MIC ([5]; Middlebrook 7H9, resazurin): 13.6 µM (≈ 3.91 µg/mL)
- MIC [6]: 217 µM (≈ 62.5 µg/mL)
- MIC ([7]; 24h incubation): > 500 µM
- MIC ([7]; 48h incubation): > 500 µM
- MIC ([8]; 24 h): > 500 µM
- MIC ([8]; 48 h): > 500 µM
- MIC ([9]; 24h incubation): > 500 µM
- MIC ([9]; 48h incubation): > 500 µM
- MIC ([10]; 24h incubation): > 500 µM
- MIC ([10]; 48h incubation): > 500 µM
- MIC ([11]; 24h incubation): > 500 µM
- MIC ([11]; 48h incubation): > 500 µM
- MIC ([12]; 24h incubation): > 500 µM
- MIC ([12]; 48h incubation): > 500 µM
- MIC ([13]; 24h incubation): > 500 µM
- MIC ([13]; 48h incubation): > 500 µM
- MIC ([14]; 24h incubation): > 500 µM
- MIC ([14]; 48h incubation): > 500 µM
- MIC ([15]; 24h incubation): > 125 µM
- MIC ([15]; 48h incubation): > 125 µM
- MIC ([16]; 24h incubation): > 125 µM
- MIC ([16]; 48h incubation): > 125 µM
- MIC ([17]; 24h incubation): > 125 µM
- MIC ([17]; 48h incubation): > 125 µM
- MIC ([18]; 24h incubation): > 125 µM
- MIC ([18]; 48h incubation): > 125 µM
- MIC ([19]; 24h incubation): > 125 µM
- MIC ([19]; 48h incubation): > 125 µM
- MIC ([20]; 24h incubation): > 125 µM
- MIC ([20]; 48h incubation): > 125 µM
- MIC ([21]; 24h incubation): > 125 µM
- MIC ([21]; 48h incubation): > 125 µM
- MIC ([22]; 72h incubation): > 125 µM
- MIC ([22]; 120h incubation): > 125 µM
- melting point: 225.5 to 228.1 °C
- IC50 (HepG2 cell line): > 1000 µM

SMILES: O=C(Nc1ccc2c(c1)B(O)OC2)c1ccc(Cl)s1 [Compound 15, 5-chloro-N-(1-hydroxy-1,3-dihydrobenzo[c][1,2]oxaborol-6-yl)thiophene-2-carboxamide]
- MIC [1]: 53.2 µM (≈ 15.6 µg/mL)
- MIC [2]: 42.6 µM (≈ 12.5 µg/mL)
- MIC [3]: 106 µM (≈ 31.3 µg/mL)
- MIC [4]: 426 µM (≈ 125 µg/mL)
- MIC [5]: 53.2 µM (≈ 15.6 µg/mL)
- MIC [6]: 852 µM (≈ 250 µg/mL)
- MIC ([7]; 24h incubation): 500 µM (≈ 147 µg/mL)
- MIC ([7]; 48h incubation): 500 µM (≈ 147 µg/mL)
- MIC ([8]; 24 h): 500 µM (≈ 147 µg/mL)
- MIC ([8]; 48 h): 500 µM (≈ 147 µg/mL)
- MIC ([9]; 24h incubation): 500 µM (≈ 147 µg/mL)
- MIC ([9]; 48h incubation): 500 µM (≈ 147 µg/mL)
- MIC ([10]; 24h incubation): > 500 µM
- MIC ([10]; 48h incubation): > 500 µM
- MIC ([11]; 24h incubation): > 500 µM
- MIC ([11]; 48h incubation): > 500 µM
- MIC ([12]; 24h incubation): > 500 µM
- MIC ([12]; 48h incubation): > 500 µM
- MIC ([13]; 24h incubation): > 500 µM
- MIC ([13]; 48h incubation): > 500 µM
- MIC ([14]; 24h incubation): > 500 µM
- MIC ([14]; 48h incubation): > 500 µM
- MIC ([15]; 24h incubation): > 500 µM
- MIC ([15]; 48h incubation): > 500 µM
- MIC ([16]; 24h incubation): > 500 µM
- MIC ([16]; 48h incubation): > 500 µM
- MIC ([17]; 24h incubation): > 500 µM
- MIC ([17]; 48h incubation): > 500 µM
- MIC ([18]; 24h incubation): > 500 µM
- MIC ([18]; 48h incubation): > 500 µM
- MIC ([19]; 24h incubation): > 500 µM
- MIC ([19]; 48h incubation): > 500 µM
- MIC ([20]; 24h incubation): > 500 µM
- MIC ([20]; 48h incubation): > 500 µM
- MIC ([21]; 24h incubation): > 500 µM
- MIC ([21]; 48h incubation): > 500 µM
- MIC ([22]; 72h incubation): > 500 µM
- MIC ([22]; 120h incubation): > 500 µM
- melting point: 234.9 to 237.1 °C
- IC50 (HepG2 cell line): 210 µM

SMILES: O=C(Nc1ccc2c(c1)B(O)OC2)c1cscn1 [Compound 16, N-(1-hydroxy-1,3-dihydrobenzo[c][1,2]oxaborol-6-yl)thiazole-4-carboxamide]
- MIC [1]: 120 µM (≈ 31.3 µg/mL)
- MIC [2]: 96.1 µM (≈ 25 µg/mL)
- MIC [3]: 30 µM (≈ 7.81 µg/mL)
- MIC [4]: 240 µM (≈ 62.5 µg/mL)
- MIC ([5]; Middlebrook 7H9, resazurin): 15 µM (≈ 3.91 µg/mL)
- MIC [6]: 30 µM (≈ 7.81 µg/mL)
- MIC ([7]; 24h incubation): 125 µM (≈ 32.5 µg/mL)
- MIC ([7]; 48h incubation): 125 µM (≈ 32.5 µg/mL)
- MIC ([8]; 24 h): 250 µM (≈ 65 µg/mL)
- MIC ([8]; 48 h): 500 µM (≈ 130 µg/mL)
- MIC ([9]; 24h incubation): 500 µM (≈ 130 µg/mL)
- MIC ([9]; 48h incubation): > 500 µM
- MIC ([10]; 24h incubation): > 500 µM
- MIC ([10]; 48h incubation): > 500 µM
- MIC Escherichia coli ([11]; 48h incubation): no inhibition
- MIC ([11]; 24h incubation): 500 µM (≈ 130 µg/mL)
- MIC ([11]; 48h incubation): > 500 µM
- MIC Klebsiella pneumoniae ([12]; 48h incubation): no inhibition
- MIC ([12]; 24h incubation): 500 µM (≈ 130 µg/mL)
- MIC ([12]; 48h incubation): > 500 µM
- MIC ([13]; 24h incubation): > 500 µM
- MIC ([13]; 48h incubation): > 500 µM
- MIC ([14]; 24h incubation): > 500 µM
- MIC ([14]; 48h incubation): > 500 µM
- MIC ([15]; 24h incubation): > 500 µM
- MIC ([15]; 48h incubation): > 500 µM
- MIC ([16]; 24h incubation): > 500 µM
- MIC ([16]; 48h incubation): > 500 µM
- MIC ([17]; 24h incubation): > 500 µM
- MIC ([17]; 48h incubation): > 500 µM
- MIC ([18]; 24h incubation): > 500 µM
- MIC ([18]; 48h incubation): > 500 µM
- MIC ([19]; 24h incubation): > 500 µM
- MIC ([19]; 48h incubation): > 500 µM
- MIC ([20]; 24h incubation): > 500 µM
- MIC ([20]; 48h incubation): > 500 µM
- MIC ([21]; 24h incubation): > 500 µM
- MIC ([21]; 48h incubation): > 500 µM
- MIC ([22]; 72h incubation): > 500 µM
- MIC ([22]; 120h incubation): > 500 µM
- melting point: 225.7 to 227.9 °C
- IC50 (HepG2 cell line): > 1000 µM
